Measurements as given in BindingDB's records for doi:10.1016/s0960-894x(01)00095-6 (Seoul National University, 2001).

The compounds below were run against Isoleucine--tRNA ligase (Escherichia coli) (UniProt P00956) (assay: Inhibition of [3H]isoleucyl incorporation by Escherichia coli isoleucyl-tRNA synthetase (IleRS)).
Isoleucine--tRNA ligase (Escherichia coli), sequence (P00956 whole entry, looked up): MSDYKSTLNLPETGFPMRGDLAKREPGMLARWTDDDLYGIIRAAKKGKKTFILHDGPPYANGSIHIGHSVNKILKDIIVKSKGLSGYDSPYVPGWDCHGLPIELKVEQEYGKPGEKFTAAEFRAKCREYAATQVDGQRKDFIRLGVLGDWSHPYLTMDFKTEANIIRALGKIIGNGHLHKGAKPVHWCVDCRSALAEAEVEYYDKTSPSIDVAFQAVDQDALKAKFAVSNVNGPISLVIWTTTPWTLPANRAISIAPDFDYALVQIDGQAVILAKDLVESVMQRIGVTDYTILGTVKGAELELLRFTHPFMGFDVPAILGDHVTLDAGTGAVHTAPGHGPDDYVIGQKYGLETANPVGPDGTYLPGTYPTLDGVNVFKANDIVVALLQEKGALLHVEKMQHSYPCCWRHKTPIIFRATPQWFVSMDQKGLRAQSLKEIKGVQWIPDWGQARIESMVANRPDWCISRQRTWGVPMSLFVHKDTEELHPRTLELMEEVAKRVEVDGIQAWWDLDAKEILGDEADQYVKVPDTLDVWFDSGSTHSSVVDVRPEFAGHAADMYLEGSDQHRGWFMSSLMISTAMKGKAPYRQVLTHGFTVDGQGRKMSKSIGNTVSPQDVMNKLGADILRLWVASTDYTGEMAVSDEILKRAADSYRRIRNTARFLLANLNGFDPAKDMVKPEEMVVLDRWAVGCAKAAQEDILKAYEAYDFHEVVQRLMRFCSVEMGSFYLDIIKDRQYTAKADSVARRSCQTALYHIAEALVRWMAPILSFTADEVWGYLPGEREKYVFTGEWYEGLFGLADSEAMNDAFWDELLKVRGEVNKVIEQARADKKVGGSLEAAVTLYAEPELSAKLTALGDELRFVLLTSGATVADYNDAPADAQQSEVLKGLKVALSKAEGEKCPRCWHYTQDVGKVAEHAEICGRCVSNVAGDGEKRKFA

Q: With CC[C@H](C)[C@H](N)C(=O)OC[C@H]1O[C@@H](CCn2nnc(-c3ccccc3)n2)[C@H](O)[C@@H]1O [(1S,2S)-1-{(2R,3S,4R,5S)-3,4-Dihydroxy-5-[2-(5-phenyl-tetrazol-2-yl)-ethyl]-tetrahydro-furan-2-ylmethoxycarbonyl}-2-methyl-butyl-ammonium] as the compound, how does the IC50 read?
A: 63.6 µM

Q: With CC[C@H](C)[C@H](N)C(=O)N(O)C[C@H]1O[C@@H](CCn2cnc3c(N)ncnc32)[C@H](O)[C@@H]1O [(1S,2S)-1-({(2R,3S,4R,5S)-5-[2-(6-Amino-purin-9-yl)-ethyl]-3,4-dihydroxy-tetrahydro-furan-2-ylmethyl}-hydroxy-carbamoyl)-2-methyl-butyl-ammonium] as the compound, how does the IC50 read?
A: > 128 µM

Q: Which IC50 does the source give for CC[C@H](C)[C@H](N)C(=O)N(O)C[C@H]1O[C@@H](CCn2cnc3c(NCc4ccccc4)ncnc32)[C@H](O)[C@@H]1O [(1S,2S)-1-({(2R,3S,4R,5S)-5-[2-(6-Benzylamino-purin-9-yl)-ethyl]-3,4-dihydroxy-tetrahydro-furan-2-ylmethyl}-hydroxy-carbamoyl)-2-methyl-butyl-ammonium] here?
A: > 128 µM

Q: How did the IC50 turn out when CC[C@H](C)[C@H](N)C(=O)OC[C@H]1O[C@@H](n2cnc3c(N)ncnc32)[C@H](O)[C@@H]1O [(1S,2S)-1-[(2R,3S,4R,5R)-5-(6-Amino-purin-9-yl)-3,4-dihydroxy-tetrahydro-furan-2-ylmethoxycarbonyl]-2-methyl-butyl-ammonium] was run?
A: 183 µM

Q: How did the IC50 turn out when CC[C@H](C)[C@H](N)C(=O)N(O)C[C@H]1O[C@@H](n2cnc3c(N)ncnc32)[C@H](O)[C@@H]1O [(1S,2S)-1-{[(2R,3S,4R,5R)-5-(6-Amino-purin-9-yl)-3,4-dihydroxy-tetrahydro-furan-2-ylmethyl]-hydroxy-carbamoyl}-2-methyl-butyl-ammonium] was run?
A: 181 µM

Q: CC[C@H](C)[C@H](N)C(=O)N(O)C[C@H]1O[C@@H](CCn2nnc(-c3ccccc3)n2)[C@H](O)[C@@H]1O [(1S,2S)-1-({(2R,3S,4R,5S)-3,4-Dihydroxy-5-[2-(5-phenyl-tetrazol-2-yl)-ethyl]-tetrahydro-furan-2-ylmethyl}-hydroxy-carbamoyl)-2-methyl-butyl-ammonium] was tested. Which IC50 did it give?
A: > 128 µM

Q: CC[C@H](C)[C@H](N)C(=O)OC[C@H]1O[C@@H](CCn2cnc3c(N)ncnc32)[C@H](O)[C@@H]1O [(1S,2S)-1-{(2R,3S,4R,5S)-5-[2-(6-Amino-purin-9-yl)-ethyl]-3,4-dihydroxy-tetrahydro-furan-2-ylmethoxycarbonyl}-2-methyl-butyl-ammonium] was tested. Which IC50 did it give?
A: > 128 µM

Q: Which IC50 does the source give for CC[C@H](C)[C@H](N)C(=O)OC[C@H]1O[C@@H](Cn2cnc3c(N)ncnc32)[C@H](O)[C@@H]1O [(1S,2S)-1-[(2R,3S,4R,5S)-5-(6-Amino-purin-9-ylmethyl)-3,4-dihydroxy-tetrahydro-furan-2-ylmethoxycarbonyl]-2-methyl-butyl-ammonium] here?
A: > 128 µM

Q: How did the IC50 turn out when CC[C@H](C)[C@H](N)C(=O)N(O)C[C@H]1O[C@@H](Cn2cnc3c(N)ncnc32)[C@H](O)[C@@H]1O [(1S,2S)-1-{[(2R,3S,4R,5S)-5-(6-Amino-purin-9-ylmethyl)-3,4-dihydroxy-tetrahydro-furan-2-ylmethyl]-hydroxy-carbamoyl}-2-methyl-butyl-ammonium] was run?
A: > 128 µM

Q: For CC[C@H](C)[C@H](N)C(=O)OC[C@H]1O[C@@H](CCn2cnc3c(NCc4ccccc4)ncnc32)[C@H](O)[C@@H]1O [(1S,2S)-1-{(2R,3S,4R,5S)-5-[2-(6-Benzylamino-purin-9-yl)-ethyl]-3,4-dihydroxy-tetrahydro-furan-2-ylmethoxycarbonyl}-2-methyl-butyl-ammonium], which IC50 is on record?
A: 84 µM

The compounds below were run against Methionine--tRNA ligase (Escherichia coli) (UniProt P00959) (assay: Inhibition of [35S]methionyl incorporation by Escherichia coli methionyl-tRNA synthetase (MetRS)).
Methionine--tRNA ligase (Escherichia coli), sequence (P00959 whole entry, looked up): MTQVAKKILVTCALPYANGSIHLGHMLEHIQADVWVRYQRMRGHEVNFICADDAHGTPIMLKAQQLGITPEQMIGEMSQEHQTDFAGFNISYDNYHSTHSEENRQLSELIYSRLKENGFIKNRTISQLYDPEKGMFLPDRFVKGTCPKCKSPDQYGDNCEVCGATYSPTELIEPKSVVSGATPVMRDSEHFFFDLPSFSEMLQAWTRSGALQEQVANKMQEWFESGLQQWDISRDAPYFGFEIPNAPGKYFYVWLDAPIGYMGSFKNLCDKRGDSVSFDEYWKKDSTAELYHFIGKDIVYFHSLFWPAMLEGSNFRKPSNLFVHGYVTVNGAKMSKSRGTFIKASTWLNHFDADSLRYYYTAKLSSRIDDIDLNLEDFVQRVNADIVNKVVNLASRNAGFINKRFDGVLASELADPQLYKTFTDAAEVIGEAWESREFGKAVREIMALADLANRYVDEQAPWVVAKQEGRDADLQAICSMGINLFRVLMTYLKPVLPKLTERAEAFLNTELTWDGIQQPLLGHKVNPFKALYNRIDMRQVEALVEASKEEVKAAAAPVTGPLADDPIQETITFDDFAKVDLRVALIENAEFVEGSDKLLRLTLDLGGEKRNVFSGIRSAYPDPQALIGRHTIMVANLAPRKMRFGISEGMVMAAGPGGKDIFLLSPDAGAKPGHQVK

Q: Which IC50 does the source give for CSCC[C@H](N)C(=O)N(O)C[C@H]1O[C@@H](Cn2nnc(-c3ccccc3)n2)[C@H](O)[C@@H]1O [(S)-1-{[(2R,3S,4R,5S)-3,4-Dihydroxy-5-(5-phenyl-tetrazol-2-ylmethyl)-tetrahydro-furan-2-ylmethyl]-hydroxy-carbamoyl}-3-methylsulfanyl-propyl-ammonium] here?
A: 17 µM

Q: Which IC50 does the source give for CSCC[C@H](N)C(=O)N(O)C[C@H]1O[C@@H](Cn2cnc3c(NCc4ccccc4)ncnc32)[C@H](O)[C@@H]1O [(S)-1-{[(2R,3S,4R,5S)-5-(6-Benzylamino-purin-9-ylmethyl)-3,4-dihydroxy-tetrahydro-furan-2-ylmethyl]-hydroxy-carbamoyl}-3-methylsulfanyl-propyl-ammonium] here?
A: 63 µM

Q: CSCC[C@H](N)C(=O)N(O)C[C@H]1O[C@@H](n2cnc3c(N)ncnc32)[C@H](O)[C@@H]1O [(S)-1-{[(2R,3S,4R,5R)-5-(6-Amino-purin-9-yl)-3,4-dihydroxy-tetrahydro-furan-2-ylmethyl]-hydroxy-carbamoyl}-3-methylsulfanyl-propyl-ammonium] was tested. Which IC50 did it give?
A: 27 µM

Q: Which IC50 does the source give for CSCC[C@H](N)C(=O)N(O)C[C@H]1O[C@@H](CCn2nnc(-c3ccccc3)n2)[C@H](O)[C@@H]1O [(S)-1-({(2R,3S,4R,5S)-3,4-Dihydroxy-5-[2-(5-phenyl-tetrazol-2-yl)-ethyl]-tetrahydro-furan-2-ylmethyl}-hydroxy-carbamoyl)-3-methylsulfanyl-propyl-ammonium] here?
A: 34 µM

Q: How did the IC50 turn out when CSCC[C@H](N)C(=O)OC[C@H]1O[C@@H](Cn2cnc3c(N)ncnc32)[C@H](O)[C@@H]1O [(S)-1-[(2R,3S,4R,5S)-5-(6-Amino-purin-9-ylmethyl)-3,4-dihydroxy-tetrahydro-furan-2-ylmethoxycarbonyl]-3-methylsulfanyl-propyl-ammonium] was run?
A: 3.6 µM

Q: Which IC50 does the source give for CSCC[C@H](N)C(=O)OC[C@H]1O[C@@H](CCn2cnc3c(N)ncnc32)[C@H](O)[C@@H]1O [(S)-1-{(2R,3S,4R,5S)-5-[2-(6-Amino-purin-9-yl)-ethyl]-3,4-dihydroxy-tetrahydro-furan-2-ylmethoxycarbonyl}-3-methylsulfanyl-propyl-ammonium] here?
A: 8.3 µM

Q: How did the IC50 turn out when CSCC[C@H](N)C(=O)OC[C@H]1O[C@@H](CCn2cnc3c(NCc4ccccc4)ncnc32)[C@H](O)[C@@H]1O [(S)-1-{(2R,3S,4R,5S)-5-[2-(6-Benzylamino-purin-9-yl)-ethyl]-3,4-dihydroxy-tetrahydro-furan-2-ylmethoxycarbonyl}-3-methylsulfanyl-propyl-ammonium] was run?
A: 33.2 µM

Q: With CSCC[C@H](N)C(=O)N(O)C[C@H]1O[C@@H](CCn2cnc3c(NCc4ccccc4)ncnc32)[C@H](O)[C@@H]1O [(S)-1-({(2R,3S,4R,5S)-5-[2-(6-Benzylamino-purin-9-yl)-ethyl]-3,4-dihydroxy-tetrahydro-furan-2-ylmethyl}-hydroxy-carbamoyl)-3-methylsulfanyl-propyl-ammonium] as the compound, how does the IC50 read?
A: 23 µM

Q: Which IC50 does the source give for CSCC[C@H](N)C(=O)N(O)C[C@H]1O[C@@H](Cn2cnc3c(N)ncnc32)[C@H](O)[C@@H]1O [(S)-1-{[(2R,3S,4R,5S)-5-(6-Amino-purin-9-ylmethyl)-3,4-dihydroxy-tetrahydro-furan-2-ylmethyl]-hydroxy-carbamoyl}-3-methylsulfanyl-propyl-ammonium] here?
A: 26 µM

Q: CSCC[C@H](N)C(=O)OC[C@H]1O[C@@H](CCn2nnc(-c3ccccc3)n2)[C@H](O)[C@@H]1O [(S)-1-{(2R,3S,4R,5S)-3,4-Dihydroxy-5-[2-(5-phenyl-tetrazol-2-yl)-ethyl]-tetrahydro-furan-2-ylmethoxycarbonyl}-3-methylsulfanyl-propyl-ammonium] was tested. Which IC50 did it give?
A: > 256 µM

Q: For CSCC[C@H](N)C(=O)OC[C@H]1O[C@@H](n2cnc3c(N)ncnc32)[C@H](O)[C@@H]1O [(S)-1-[(2R,3S,4R,5R)-5-(6-Amino-purin-9-yl)-3,4-dihydroxy-tetrahydro-furan-2-ylmethoxycarbonyl]-3-methylsulfanyl-propyl-ammonium], which IC50 is on record?
A: 5 µM

Q: CSCC[C@H](N)C(=O)N(O)C[C@H]1O[C@@H](CCn2cnc3c(N)ncnc32)[C@H](O)[C@@H]1O [(S)-1-({(2R,3S,4R,5S)-5-[2-(6-Amino-purin-9-yl)-ethyl]-3,4-dihydroxy-tetrahydro-furan-2-ylmethyl}-hydroxy-carbamoyl)-3-methylsulfanyl-propyl-ammonium] was tested. Which IC50 did it give?
A: 56 µM

Q: How did the IC50 turn out when CSCC[C@H](N)C(=O)OC[C@H]1O[C@@H](Cn2nnc(-c3ccccc3)n2)[C@H](O)[C@@H]1O [(S)-1-[(2R,3S,4R,5S)-3,4-Dihydroxy-5-(5-phenyl-tetrazol-2-ylmethyl)-tetrahydro-furan-2-ylmethoxycarbonyl]-3-methylsulfanyl-propyl-ammonium] was run?
A: 12.2 µM

Q: Which IC50 does the source give for CSCC[C@H](N)C(=O)OC[C@H]1O[C@@H](Cn2cnc3c(NCc4ccccc4)ncnc32)[C@H](O)[C@@H]1O [(S)-1-[(2R,3S,4R,5S)-5-(6-Benzylamino-purin-9-ylmethyl)-3,4-dihydroxy-tetrahydro-furan-2-ylmethoxycarbonyl]-3-methylsulfanyl-propyl-ammonium] here?
A: 16.5 µM
